{"source": "patent US12458027B2", "about": "“Glyphosate composition for dicamba tank mixtures with improved volatility” (Monsanto Technology LLC, priority 2013, dated 2025)", "origin": "cited, not measured here", "conditions": "25° C."}
{"smiles": "O=C(O)CNCP(=O)(O)O", "note": "[Glyphosate acid, N-(phosphonomethyl)glycine]", "values": [{"measurement": "solubility in water", "result": "about 1.16 wt. %"}]}
